The text below walks through data of article PMC4172838 (Malaria Journal, 2014).

Details of data set [1]: method as in PMID 21600016. To be noted: 12-hour measurement interval; co-administration with ATO/PG (250/100 mg) prophylaxis, one HIV patient; cited from earlier work.
The next data set concerns BCRP. To be noted: cited from earlier work; for IC50: described as BCRP inhibitors, not substrates, read-out: IC50 of BCRP inhibition.
The target of data set [2] is T1, breast cancer resistance protein (BCRP/ABCG2) (Homo sapiens, UniProt Q9UNQ0).
T1 sequence (Q9UNQ0 1-655): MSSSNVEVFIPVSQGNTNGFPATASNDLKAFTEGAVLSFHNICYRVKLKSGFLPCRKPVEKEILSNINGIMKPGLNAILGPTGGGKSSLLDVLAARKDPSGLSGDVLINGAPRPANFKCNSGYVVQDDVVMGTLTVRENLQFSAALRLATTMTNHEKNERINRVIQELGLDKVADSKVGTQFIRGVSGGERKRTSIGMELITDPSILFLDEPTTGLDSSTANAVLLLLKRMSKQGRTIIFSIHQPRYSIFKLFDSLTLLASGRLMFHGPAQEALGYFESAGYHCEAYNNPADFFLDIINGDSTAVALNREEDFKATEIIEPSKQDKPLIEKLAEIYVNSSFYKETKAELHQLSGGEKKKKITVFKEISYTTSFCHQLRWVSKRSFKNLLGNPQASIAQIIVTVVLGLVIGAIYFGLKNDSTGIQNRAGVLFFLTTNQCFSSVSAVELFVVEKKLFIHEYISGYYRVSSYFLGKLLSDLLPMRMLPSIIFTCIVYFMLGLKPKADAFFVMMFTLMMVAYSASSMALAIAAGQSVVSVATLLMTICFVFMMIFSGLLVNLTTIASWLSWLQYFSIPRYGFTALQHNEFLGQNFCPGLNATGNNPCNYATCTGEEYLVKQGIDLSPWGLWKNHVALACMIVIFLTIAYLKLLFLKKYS
Description: Vesicular transport assay, BCRP-mediated estrone sulphate uptake in HEK293 membrane vesicles. To be noted: for BCRP-mediated estrone sulphate transport, percentage of solvent control: 100 μM compound, estrone sulphate 74 nM, solvent control = 100% transport. The procedure:
(§1) Human P-gp, BCRP, BSEP and MRP1-4 had previously been cloned into the Gateway pDONR221 vector. […] Gateway cloning was used to transfer the genes into a VSV-G improved pFastBacDual vector for mammalian cell transduction. The production of baculovirus was executed according to the Invitrogen Bac-to-Bac manual.
(§2) HEK293 cells were grown to 40% confluency in Dulbecco’s modified Eagle’s medium-GlutaMAX-I containing 10% foetal calf serum at 5% CO2 in 500 cm^2 triple flasks. Culture medium was removed and 25 mL of medium combined with 10 mL virus was added and incubated at RT for 20 min, followed by the addition of another 40 mL of complete medium including 5 mM sodium butyrate to enhance protein expression.
(§3) Cells were harvested three days post transduction by a 5-min centrifugation step at 3,000 g. Cells were resuspended in ice-cold hypotonic buffer (0.5 mM sodium phosphate, 0.1 mM EDTA, pH 7.0) containing protease inhibitors ([…] phenylmethylsulfonyl fluoride, 5 mg/ml aprotinin, 5 mg/ml leupeptin, 1 mg/ml pepstatin and 1 mg/ml E-64) and shaken at 4°C for 30 min. This lysate was centrifuged 100,000 xg for 30 min at 4°C, after which the pellet was homogenized in ice-cold TS buffer (10 mM Tris-HEPES and 250 mM sucrose, pH 7.4) supplemented with protease inhibitors described before using a tight-fitting Dounce homogenizer for 25 strokes. Two subsequent centrifugation steps at 4°C of firstly 20 min at 4,000 g followed by supernatant centrifugation for 60 min at 100,000 g ensured harvesting of the membrane fraction. The pellet was resuspended in ice-cold protease free TS buffer and passed 25 times through a 27-gauge needle to enhance membrane vesicle formation. Protein concentration in these vesicles was determined using the Bio-Rad protein assay, vesicles were flash-frozen in N2 and stored at -80°C.
(§4) A rapid filtration technique that has been described earlier was applied to evaluate uptake of transporter specific substrates into the vesicles; NMQ for P-gp, E1S for BCRP, E217βG for MRP1-4 and TCA for BSEP [20]. Briefly, 0.015-0.15 μCi of labelled substrate was combined with unlabelled substrates to a concentration of 0.1-1 μM in a 30 μL reaction mixture with 4 mM ATP, 10 mM MgCl2 and 7.5 μg total protein membrane vesicles in TS buffer. Transport was allowed by transfer of the plates to 37°C during 1–5 min, a time-point within the linear phase of time-dependent transport, as previously determined. Hereafter, the reaction was rapidly stopped by placing the plates back on ice and the addition of 150 μL ice-cold TS buffer. Samples were subsequently transferred to a 96-well filter plate that had been pre-incubated with TS buffer, and filtered using a multiscreen HTS-vacuum manifold filtration device (Millipore). Filters were washed and extracted, after which 2 mL scintillation fluid was added to each filter. Radioactive signal on the filters was determined by liquid scintillation counting. Negative controls included eYFP-transduced vesicles and AMP instead of ATP in the reaction mixture.
In the first screen, all anti-malarial compounds were added to the reaction mixture to evaluate transport inhibition at a concentration of 100 μM. […] When ATP-dependent uptake was reduced more than 66.7%, the compound was considered a potential inhibitor, and multiple concentrations were tested in the reaction mixture to determine the IC50 value. All concentrations were tested in duplicates or triplicates in two individual biological replicates containing vesicles of independent transductions. Results were depicted and statistically analysed using Graphpad Prism, version 5.03. IC50 values were determined by nonlinear regression analysis of (log) inhibitor-response curves with variable slope.

For data set [3], the system named is T2, bile salt export pump (BSEP/ABCB11).
T2 construct: made in house; host or cells: HEK293 cells transduced with baculovirus; isolated membrane vesicles
Description: Vesicular transport assay, BSEP-mediated taurocholic acid uptake in HEK293 membrane vesicles. It counts as biochemical, human. To be noted: 100 μM compound; taurocholic acid 1 μM; solvent control = 100% transport.
Description: Cells were harvested three days post transduction by a 5-min centrifugation step at 3,000 g. Cells were resuspended in ice-cold hypotonic buffer (0.5 mM sodium phosphate, 0.1 mM EDTA, pH 7.0) containing protease inhibitors (100 mM phenylmethylsulfonyl fluoride, 5 mg/ml aprotinin, 5 mg/ml leupeptin, 1 mg/ml pepstatin and 1 mg/ml E-64) and shaken at 4°C for 30 min. This lysate was centrifuged 100,000 xg for 30 min at 4°C, after which the pellet was homogenized in ice-cold TS buffer (10 mM Tris-HEPES and 250 mM sucrose, pH 7.4) supplemented with protease inhibitors described before using a tight-fitting Dounce homogenizer for 25 strokes. Two subsequent centrifugation steps at 4°C of firstly 20 min at 4,000 g followed by supernatant centrifugation for 60 min at 100,000 g ensured harvesting of the membrane fraction. The pellet was resuspended in ice-cold protease free TS buffer and passed 25 times through a 27-gauge needle to enhance membrane vesicle formation. Protein concentration in these vesicles was determined using the Bio-Rad protein assay, vesicles were flash-frozen in N2 and stored at -80°C.
A rapid filtration technique that has been described earlier was applied to evaluate uptake of transporter specific substrates into the vesicles; NMQ for P-gp, E1S for BCRP, E217βG for MRP1-4 and TCA for BSEP [20]. Briefly, 0.015-0.15 μCi of labelled substrate was combined with unlabelled substrates to a concentration of 0.1-1 μM in a 30 μL reaction mixture with 4 mM ATP, 10 mM MgCl2 and 7.5 μg total protein membrane vesicles in TS buffer. Transport was allowed by transfer of the plates to 37°C during 1–5 min, a time-point within the linear phase of time-dependent transport, as previously determined [15–19]. Hereafter, the reaction was rapidly stopped by placing the plates back on ice and the addition of 150 μL ice-cold TS buffer. Samples were subsequently transferred to a 96-well filter plate that had been pre-incubated with TS buffer, and filtered using a multiscreen HTS-vacuum manifold filtration device (Millipore). […] Radioactive signal on the filters was determined by liquid scintillation counting. […]
All concentrations were tested in duplicates or triplicates in two individual biological replicates containing vesicles of independent transductions. […] IC50 values were determined by nonlinear regression analysis of (log) inhibitor-response curves with variable slope. […]

The test system of another data set is T3, MRP2.
T3 construct: made in house; host or cells: HEK293 cells transduced with baculovirus; isolated membrane vesicles
Put plainly: Vesicular transport assay, MRP2-mediated E217βG uptake in HEK293 membrane vesicles. Format: biochemical, human. To be noted: 100 μM compound; E217βG 150 nM; solvent control = 100% transport. As for the experimental part:
as §1
(§5) HEK293 cells were grown to 40% confluency in Dulbecco’s modified Eagle’s medium-GlutaMAX-I containing 10% foetal calf serum at 5% CO2 in 500 cm^2 triple flasks. […]
(§6) Cells were harvested three days post transduction by a 5-min centrifugation step at 3,000 g. […] Protein concentration in these vesicles was determined using the Bio-Rad protein assay, vesicles were flash-frozen in N2 and stored at -80°C.
(§7) A rapid filtration technique that has been described earlier was applied to evaluate uptake of transporter specific substrates into the vesicles; NMQ for P-gp, E1S for BCRP, E217βG for MRP1-4 and TCA for BSEP [20]. […] Transport was allowed by transfer of the plates to 37°C during 1–5 min, a time-point within the linear phase of time-dependent transport, as previously determined. […] Radioactive signal on the filters was determined by liquid scintillation counting. […]
(§8) In the first screen, all anti-malarial compounds were added to the reaction mixture to evaluate transport inhibition at a concentration of 100 μM. […] Results were depicted and statistically analysed using Graphpad Prism, version 5.03. […]

A further data set deals with T4, MRP1.
T4 construct: made in house; host or cells: HEK293 cells transduced with baculovirus; isolated membrane vesicles
Description: Vesicular transport assay, MRP1-mediated E217βG uptake in HEK293 membrane vesicles. It counts as biochemical, human. To be noted: 100 μM compound; E217βG 150 nM; solvent control = 100% transport. As for the experimental part:
as §1, §5, §6, §7, §8

The conditions of data set [4]: cited from earlier work.
Another data set concerns T5, MRP3.
T5 construct: made in house; host or cells: HEK293 cells transduced with baculovirus; isolated membrane vesicles
Put plainly: Vesicular transport assay, MRP3-mediated E217βG uptake in HEK293 membrane vesicles. It counts as biochemical, human. To be noted: 100 μM compound; E217βG 150 nM; solvent control = 100% transport. The source says:
Some sequences did hold silent mutations of described polymorphisms.

In data set [5] the target is P-glycoprotein (P-gp/ABCB1) (Homo sapiens, UniProt P08183). Description: Vesicular transport assay, P-gp-mediated NMQ uptake in HEK293 membrane vesicles. To be noted: for P-gp-mediated NMQ transport, percentage of solvent control: 100 μM compound, NMQ 7 nM radio-labelled + 90 nM unlabelled, solvent control = 100% transport. The procedure:
as §1, §2, §3, §4
In the first screen, all anti-malarial compounds were added to the reaction mixture to evaluate transport inhibition at a concentration of 100 μM. […] Results were depicted and statistically analysed using Graphpad Prism, version 5.03. IC50 values were determined by nonlinear regression analysis of (log) inhibitor-response curves with variable slope.

Setting [6] is: daily prophylactic dose of 250 mg.

Sequence of P-glycoprotein (P-gp/ABCB1) (P08183 whole entry): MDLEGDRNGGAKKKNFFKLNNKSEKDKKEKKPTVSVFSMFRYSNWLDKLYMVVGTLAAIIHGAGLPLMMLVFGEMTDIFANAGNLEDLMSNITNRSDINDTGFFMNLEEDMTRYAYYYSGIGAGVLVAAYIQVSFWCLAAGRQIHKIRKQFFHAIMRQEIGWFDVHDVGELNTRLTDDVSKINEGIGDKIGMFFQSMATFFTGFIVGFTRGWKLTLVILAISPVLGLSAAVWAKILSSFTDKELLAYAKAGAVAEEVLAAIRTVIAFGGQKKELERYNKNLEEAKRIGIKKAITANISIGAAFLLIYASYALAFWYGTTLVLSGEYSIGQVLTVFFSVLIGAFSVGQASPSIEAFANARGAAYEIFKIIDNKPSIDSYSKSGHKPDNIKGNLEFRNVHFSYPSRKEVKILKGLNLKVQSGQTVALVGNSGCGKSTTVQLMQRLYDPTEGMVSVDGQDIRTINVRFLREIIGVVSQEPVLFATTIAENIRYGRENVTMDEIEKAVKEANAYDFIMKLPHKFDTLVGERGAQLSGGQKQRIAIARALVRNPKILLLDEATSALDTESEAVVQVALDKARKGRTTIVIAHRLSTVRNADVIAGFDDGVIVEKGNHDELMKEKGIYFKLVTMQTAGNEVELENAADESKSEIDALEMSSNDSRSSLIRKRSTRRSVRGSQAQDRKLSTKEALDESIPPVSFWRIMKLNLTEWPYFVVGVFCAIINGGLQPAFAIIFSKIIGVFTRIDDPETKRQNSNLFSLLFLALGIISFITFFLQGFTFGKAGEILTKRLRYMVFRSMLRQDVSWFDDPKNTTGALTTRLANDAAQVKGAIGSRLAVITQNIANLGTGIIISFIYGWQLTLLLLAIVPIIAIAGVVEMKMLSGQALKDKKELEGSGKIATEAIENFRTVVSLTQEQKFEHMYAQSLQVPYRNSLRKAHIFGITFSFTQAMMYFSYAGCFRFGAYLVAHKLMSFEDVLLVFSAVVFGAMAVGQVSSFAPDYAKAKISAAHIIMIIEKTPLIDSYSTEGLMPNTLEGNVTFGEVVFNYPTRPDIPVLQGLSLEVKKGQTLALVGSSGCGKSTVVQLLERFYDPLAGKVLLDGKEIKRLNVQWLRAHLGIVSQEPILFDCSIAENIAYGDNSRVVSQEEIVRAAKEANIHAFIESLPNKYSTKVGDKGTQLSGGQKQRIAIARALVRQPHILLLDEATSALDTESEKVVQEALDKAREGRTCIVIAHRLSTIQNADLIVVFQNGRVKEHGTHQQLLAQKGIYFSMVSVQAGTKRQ

In the case of `Cc1cc(C#N)cc(C)c1Oc1nc(Nc2ccc(C#N)cc2)nc(N)c1Br` [etravirine], the “Increase of AUC” value in [1] was 55%. Besides, the IC50 in the data set with BCRP is 1 µM.
On to maraviroc, for which the “BCRP inhibition (in words)” value with BCRP is given as “do not inhibit BCRP”.
As for `CCCCN(CCCC)CC(O)c1cc(Cl)cc2c1-c1ccc(Cl)cc1/C2=C/c1ccc(Cl)cc1` (stereo not shown) [L, lumefantrine], in data set [2], the “BCRP-mediated estrone sulphate transport, percentage of solvent control” value is recorded as 44%.
`Cc1nnc(C(=O)NC(C)(C)c2nc(C(=O)NCc3ccc(F)cc3)c(O)c(=O)n2C)o1` [raltegravir]: in the data set on BCRP, the “BCRP inhibition (in words)” value is “do not inhibit BCRP”.
As for `COC(=O)N[C@H](C(=O)N[C@@H](Cc1ccccc1)[C@@H](O)CN(Cc1ccc(-c2ccccn2)cc1)NC(=O)[C@@H](NC(=O)OC)C(C)(C)C)C(C)(C)C` [atazinavir], the “BCRP-mediated transport inhibition (in words)” value in the data set on BCRP was “inhibitors of BCRP-mediated transport”.
On to `O=C1C(O)=C([C@H]2CC[C@H](c3ccc(Cl)cc3)CC2)C(=O)c2ccccc21` [ATO, atovaquone], for which, in [2], the half-inhibitory concentration (IC50) worked out at 0.23 µM and the “BCRP-mediated estrone sulphate transport, percentage of solvent control” value amounted to 22%. In data set [3], the “BSEP-mediated taurocholic acid transport, percentage of solvent control” value is given as 54%. Further, the “MRP2-mediated estradiol 17-β-D glucuronide transport, percentage of solvent control” value with MRP2 turned out to be 162%. For the same compound, the “MRP1-mediated estradiol 17-β-D glucuronide transport, percentage of solvent control” value with MRP1 is given as 141%. In [4] (setting [6]), the “Maximal blood plasma concentration” value is reported as “around 14 μM” and the “Maximal blood plasma concentration, range” value is 8 to 26 µM.
For the compound `C[C@H]1[C@@H](O)O[C@@H]2O[C@@]3(C)CC[C@H]4[C@H](C)CC[C@@H]1[C@@]24OO3` [DHA, dihydroartemisinin], the “MRP3-mediated estradiol 17-β-D glucuronide transport, percentage of solvent control” value in the data set on MRP3 worked out at 121%. Moreover, the “BCRP-mediated estrone sulphate transport, percentage of solvent control” value in [2] is 70%. Besides, the “BSEP-mediated taurocholic acid transport, percentage of solvent control” value in data set [3] turned out to be 114%. For the same compound, the “P-gp-mediated NMQ transport, percentage of solvent control” value (“P-gp-mediated NMQ transport, percentage” below) in data set [5] came to 112%.
Regarding `O=C1Nc2ccc(Cl)cc2[C@@](C#CC2CC2)(C(F)(F)F)O1` [efavirenz], the “BCRP-mediated transport inhibition (in words)” value in the data set with BCRP is reported as “inhibitors of BCRP-mediated transport”.
In the case of `OC(c1cc(C(F)(F)F)nc2c(C(F)(F)F)cccc12)C1CCCCN1` (stereo not shown) [MQ, mefloquine], the “MRP3-mediated estradiol 17-β-D glucuronide transport, percentage of solvent control” value in the data set with MRP3 is 70%. In data set [2], the IC50 stood at 18 µM and the “BCRP-mediated estrone sulphate transport, percentage of solvent control” value is reported as 8.5%. The “BSEP-mediated taurocholic acid transport, percentage of solvent control” value in [3] turned out to be 72%. For the same compound, the “MRP1-mediated estradiol 17-β-D glucuronide transport, percentage of solvent control” value in the data set with MRP1 turned out to be 50%. Besides, in data set [5], half-maximal inhibition (IC50) required 72 µM and the “P-gp-mediated NMQ transport, percentage” value is given as 30%.
Take `CCN(CC)CCCC(C)Nc1ccnc2cc(Cl)ccc12` (stereo not shown) [CQ, chloroquine]: the “BCRP-mediated estrone sulphate transport, percentage of solvent control” value in data set [2] is 69%. The “P-gp-mediated NMQ transport, percentage” value in data set [5] is reported as 50%.
Turning to `C=C[C@H]1C[N@@]2CC[C@H]1C[C@H]2[C@H](O)c1ccnc2ccc(OC)cc12` [Q, quinine], the Maximal plasma concentration in data set [4] (seven-day regimen of 10 mg/kg oral dose three times daily of quinine sulphate) was 30 µM.
In the case of `Cc1cccc(C)c1OCC(=O)N[C@@H](Cc1ccccc1)[C@@H](O)C[C@H](Cc1ccccc1)NC(=O)[C@H](C(C)C)N1CCCNC1=O` [lopinavir], in the data set with BCRP, the “BCRP-mediated transport inhibition (in words)” value is given as “inhibitors of BCRP-mediated transport”.
With `CC(C)(C)NC(=O)[C@@H]1C[C@@H]2CCCC[C@@H]2CN1C[C@@H](O)[C@H](Cc1ccccc1)NC(=O)[C@H](CC(N)=O)NC(=O)c1ccc2ccccc2n1` [saquinavir], the “Increase of AUC” value in data set [1] is given as 274%. Besides, the IC50 with BCRP was 19.5 µM.
Regarding `[H]/N=C(\N/C(=N/[H])Nc1ccc(Cl)cc1)NC(C)C` [PG, proguanil], in data set [2], the IC50 came to 118 µM and the “BCRP-mediated estrone sulphate transport, percentage of solvent control” value stood at 36%. Moreover, the “P-gp-mediated NMQ transport, percentage” value in data set [5] is given as 76%.
Turning to `C[C@@H]1CC[C@H]2[C@@H](C)C(=O)O[C@@H]3O[C@@]4(C)CC[C@@H]1[C@]32OO4` [ART, artemisinin], the “MRP3-mediated estradiol 17-β-D glucuronide transport, percentage of solvent control” value with MRP3 came out at 122%. Further, the “BSEP-mediated taurocholic acid transport, percentage of solvent control” value in data set [3] is recorded as 117%. In addition, the “MRP2-mediated estradiol 17-β-D glucuronide transport, percentage of solvent control” value with MRP2 was found to be 151%.

As usually defined, the IC50 is the midpoint of a concentration-inhibition curve.
